Measured values as given in publication PMC12728570, “Sphingomyelin synthase inhibitors from edible mushrooms prevent overweight and improve vitamin D homeostasis in a mouse model of diet-induced obesity” (Frontiers in Nutrition, 2025).
Like-named read-outs stand apart in the source and are kept apart here.

Legend:
[1] = test system: T1, SMS2 (sphingomyelin synthase 2); assay: HPLC-fluorescence enzyme assay, ZS2 cell lysate; format: biochemical; settings: Path 2: 5 μM C6-NBD-ceramide to NBD-SM; 5 μM C6-NBD-PC present; 37 °C, 30 min preincubation
T1 construct: gene SGMS2; stably expressed in SMS1/SMS2-deficient mouse embryonic fibroblasts (ZS2), cell lysate
Excerpt: HPLC-fluorescence enzyme assay, ZS2 cell lysate on SMS2 (sphingomyelin synthase 2)

[2] = test system: T2, SMS1 (sphingomyelin synthase 1); assay: HPLC-fluorescence enzyme assay, ZS2 cell lysate; format: biochemical; settings: 37 °C, 30 min preincubation
T2 construct: gene SGMS1; stably expressed in SMS1/SMS2-deficient mouse embryonic fibroblasts (ZS2), cell lysate
Excerpt: HPLC-fluorescence enzyme assay, ZS2 cell lysate on SMS1 (sphingomyelin synthase 1)

IC50 [1] | IC50 ([2]; read-out: IC50 (μM) / SMS1 / Path 1) | IC50 ([2]; Path 2: 5 μM C6-NBD-ceramide to NBD-SM, 5 μM C6-NBD-PC present) | SMILES
2.5 µM | 3 µM |  | CC(C)=CCC/C(C)=C/CC/C(C)=C/Cc1c(O)cc(C)c(C(=O)O)c1O [grifolic acid]
3 µM |  | 0.6 µM | CC(C)=CCC/C(C)=C/CC/C(C)=C/Cc1c(O)cc(C)cc1O [grifolin]
